Results published in ChEMBL document CHEMBL1139249, “N,N-Dichloroaminosulfonic acids as novel topical antimicrobial agents” (Bioorg Med Chem Lett, 2009).
Values after ≈ are worked out from the molar mass of the structure shown.

How the values were obtained:
Candida albicans [1] = assay: Antifungal activity against Candida albicans MCC 50319 after 16 to 20 hrs by CLSI standard method; type: functional
[2] = Cytotoxicity against mouse L929 cells; type: cell-based; conditions: read-out: CT50 (the source's name)
Staphylococcus aureus [3] = assay: Antibacterial activity against Staphylococcus aureus MCC 91731 after 16 to 20 hrs by CLSI standard method; type: functional
[4] = Aqueous solubility at pH 4; type: physicochemical; conditions: aqueous solution
[5] = Therapeutic index, ratio of CT50 for mouse L929 cells to MFC for Candida albicans; type: cell-based; conditions: read-out: TI
[6] = Therapeutic index, ratio of CT50 for mouse L929 cells to MBC for Escherichia coli; type: cell-based; conditions: read-out: TI
[7] = Therapeutic index, ratio of CT50 for mouse L929 cells to MBC for Staphylococcus aureus; type: cell-based; conditions: read-out: TI
Escherichia coli [8] = assay: Antibacterial activity against Escherichia coli ATCC 25922 after 16 to 20 hrs by CLSI standard method; type: functional
Candida albicans [9] = assay: Antifungal activity against Candida albicans ATCC 10231 after 16 to 20 hrs by CLSI standard method; type: functional
Staphylococcus aureus [10] = assay: Antibacterial activity against Staphylococcus aureus ATCC 29213 after 16 to 20 hrs by CLSI standard method; type: functional
Escherichia coli [11] = assay: Antibacterial activity against Escherichia coli MCC 80392 after 16 to 20 hrs by CLSI standard method; type: functional

| SMILES | half-life [4] [days] | MFC (Candida albicans [1]) [µg/mL] | CC50 [2] [µg/mL] | MBC (Staphylococcus aureus [3]) [µg/mL] | selectivity ratio [5] | selectivity ratio [6] | selectivity ratio [7] | MBC (Escherichia coli [8]) [µg/mL] | MFC (Candida albicans [9]) [µg/mL] | MBC (Staphylococcus aureus [10]) [µg/mL] | MBC (Escherichia coli [11]) [µg/mL] |
| --- | --- | --- | --- | --- | --- | --- | --- | --- | --- | --- | --- |
| CCOP(=O)(O)CC(C)(C)N(Cl)Cl | > 18 | 32 (≈ 128 µM) | 80 (≈ 320 µM) | 2 (≈ 8 µM) | 2 | 8 | 8 |  |  |  |  |
| CC(C)(COC(=O)CCS(=O)(=O)O)N(Cl)Cl | 64 | 4 (≈ 13.6 µM) | 130 (≈ 442 µM) | 1 (≈ 3.4 µM) | 2 | 8 | 8 | 2 (≈ 6.8 µM) |  |  |  |
| CC(C)(CS(=O)(=O)CCS(=O)(=O)O)N(Cl)Cl | > 95 |  | 1820 (≈ 5790 µM) |  | 2 | 8 | 8 | 4 (≈ 12.7 µM) | 64 (≈ 204 µM) | 8 (≈ 25.5 µM) |  |
| CC(C)(CS(=O)(=O)O)C(=O)OCC(C)(C)N(Cl)Cl | 80 |  | 840 (≈ 2610 µM) |  | 2 | 8 | 8 | 4 (≈ 12.4 µM) | 16 (≈ 49.7 µM) | 8 (≈ 24.8 µM) |  |
| CC(C)(CC(=O)OCCS(=O)(=O)O)N(Cl)Cl | > 95 |  | 270 (≈ 918 µM) |  | 2 | 8 | 8 | 2 (≈ 6.8 µM) | 64 (≈ 218 µM) | 2 (≈ 6.8 µM) |  |
| CC(C)(CP(=O)(O)O)N(Cl)Cl | 23 |  | 130 (≈ 586 µM) |  | 2 | 8 | 8 | 8 (≈ 36 µM) | 16 (≈ 72.1 µM) | 16 (≈ 72.1 µM) |  |

The next lines start with results.

| half-life [4] [days] | SMILES | MFC (Candida albicans [1]) [µg/mL] | CC50 [2] [µg/mL] | MBC (Staphylococcus aureus [3]) [µg/mL] | selectivity ratio [5] | selectivity ratio [6] | selectivity ratio [7] | MBC (Escherichia coli [8]) [µg/mL] | MFC (Candida albicans [9]) [µg/mL] | MBC (Staphylococcus aureus [10]) [µg/mL] | MBC (Escherichia coli [11]) [µg/mL] |
| --- | --- | --- | --- | --- | --- | --- | --- | --- | --- | --- | --- |
| 44 | CC(=O)NS(=O)(=O)CC(C)(C)N(Cl)Cl |  |  |  | 2 | 8 | 8 | 2 (≈ 7.6 µM) | 64 (≈ 243 µM) | 1 (≈ 3.8 µM) |  |
| > 200 | CC(C)(CS(=O)(=O)[O-])N(Cl)Cl.[Na+] | 32 | 1200 | 1 | 2 | 8 | 8 |  |  |  | 4 |
| 16 | CC(C)(CCCS(=O)(=O)O)N(Cl)Cl | > 128 | 640 (≈ 2560 µM) | 8 (≈ 32 µM) | 2 | 8 | 8 |  |  |  | 8 (≈ 32 µM) |
| 174 | CC(C)(CCS(=O)(=O)O)N(Cl)Cl |  | 1900 (≈ 8050 µM) |  | 2 | 8 | 8 | 4 (≈ 16.9 µM) | 16 (≈ 67.8 µM) | 4 (≈ 16.9 µM) |  |
